Target: JAK2 JH2 (Homo sapiens (Human), UniProt O60674)
Test: Competitive fluorescence polarization (FP) assay, JAK2 JH2
Settings: read-out: Binding Affinity for JAK2 JH2 (Kd) from the FP Assay; wild-type JH2, FP, pH 8.0; mean ± SEM
Procedure: In a flat black bottom 96 well plate (Corning), the buffer (20 mM Tris-HCl pH 8.0, 150 mM NaCl, 20% Glycerol, 0.5 mM TCEP, 0.01% Tween 20) is added—200 μL to column 1 (blank), 295 μL to column 2, 150 μL to columns 3-12. […] 150 μL was transferred, using a multichannel pipette, from column 2 to 3, 3 to 4, 4 to 5, until reaching the last column to make a serial dilutions (1:2). […] Experiments were carried out by quadruplicates in three independent experiments. The data provided a typical saturation-binding curve and Kd was calculated fitting the results to the Hill equation using Prism 7.
In a flat black bottom 96 well plate (Corning), 200 μL of FP buffer were added to column 1 (blank), 150 μL to column 2, and 140 μL to columns 3-12. […] 2 μL of inhibitor in DMSO at different concentrations were added from column 4 to 12. […] Experiments were carried out by quadruplicates in three independent experiments. Data were analyzed by a least-squares non-linear fit, generated using Prism 7 in order to determine the compound's IC50. Kd values for each inhibitor are calculated using the following equation based on the IC50, Kd of the tracer (Kd^t), total (Lt) and bound (Lb) tracer, as well as total protein concentration (Pt)^13

Chain of JAK2 JH2 (O60674 536-812 W659A/W777A/F794H): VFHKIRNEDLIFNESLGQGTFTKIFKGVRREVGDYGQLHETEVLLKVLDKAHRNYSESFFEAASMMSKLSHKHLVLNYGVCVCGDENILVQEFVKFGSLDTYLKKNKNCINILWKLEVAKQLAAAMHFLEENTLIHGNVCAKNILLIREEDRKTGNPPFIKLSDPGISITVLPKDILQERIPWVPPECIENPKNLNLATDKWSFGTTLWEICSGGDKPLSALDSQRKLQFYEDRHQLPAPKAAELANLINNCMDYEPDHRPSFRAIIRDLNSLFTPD

| Structure (SMILES) | Kd |
| --- | --- |
| Nc1nc(Nc2ccc(S(N)(=O)=O)cc2)nn1Cc1c(F)cccc1F [Compound 2, 4-((5-amino-1-(2,6-difluorobenzyl)-1H-1,2,4-triazol-3-yl)amino)benzenesulfonamide] | 16.7 µM |
| Nc1nc(Nc2ccc(S(N)(=O)=O)cc2)nn1C(=O)Nc1ccccc1 [Compound 4] | 4.7 µM |
| CN(C(=O)n1nc(Nc2ccc(S(N)(=O)=O)cc2)nc1N)c1ccccc1 [Compound 5, 5-amino-N-methyl-N-phenyl-3-((4-sulfamoylphenyl)amino)-1H-1,2,4-triazole-1-carboxamide] | 47.8 ± 9.2 µM |
| Nc1nc(Nc2ccc(S(N)(=O)=O)cc2)nn1C(=O)Nc1ccccn1 [Compound 6] | 30.5 ± 3.6 µM |
| Nc1nc(Nc2ccc(S(N)(=O)=O)cc2)nn1C(=O)Nc1cccnc1 [Compound 7, 5-amino-N-(pyridin-3-yl)-3((4-sulfamoylphenyl)amino)-1H-1,2,4-triazole-1-carboxamide] | 12.3 µM |
| N#Cc1ccc(Nc2nc(N)n(C(=O)Nc3cccc(OCC(=O)O)c3)n2)cc1 [Compound 11, 2-(3-(5-amino-3((4-cyanophenyl)amino)-1H-1,2,4-triazole-1-carboxamido)phenoxy)acetic acid] | 4 µM |
| Nc1nc(Nc2ccc(S(N)(=O)=O)cc2)nn1C(=O)Nc1ccc(-c2ccc(C(=O)O)o2)cc1 [Compound 13, 5-(4-(5-amino-3((4-sulfamoylphenyl)amino)-1H-1,2,4-triazole-1-carboxamido)phenyl)furan-2-carboxylic acid] | 0.439 ± 0.064 µM |
| Nc1nc(Nc2ccc(S(N)(=O)=O)cc2)nn1C(=O)Nc1ccc(-c2nnc(C(=O)O)o2)cc1 [Compound 14, 5-(4-(5-amino-3((4-sulfamoylphenyl)amino)-1H-1,2,4-triazole-1-carboxamido)phenyl)-1,3,4-oxadiazole-2-carboxylic acid] | 7 ± 0.1 µM |

Tested on: not given
Test: not given
Settings: cited from earlier work

| Structure (SMILES) | octanol/water log P |
| --- | --- |
| c1ccoc1 [furan] | 1.34 |
| c1cocn1 [oxazole] | 0.12 |
| c1cscn1 [thiazole] | 0.44 |
| c1ccsc1 [thiophene] | 1.81 |

Target: WT JAK2 JH2 (Homo sapiens (Human), UniProt O60674)
Sequence (O60674 545-809): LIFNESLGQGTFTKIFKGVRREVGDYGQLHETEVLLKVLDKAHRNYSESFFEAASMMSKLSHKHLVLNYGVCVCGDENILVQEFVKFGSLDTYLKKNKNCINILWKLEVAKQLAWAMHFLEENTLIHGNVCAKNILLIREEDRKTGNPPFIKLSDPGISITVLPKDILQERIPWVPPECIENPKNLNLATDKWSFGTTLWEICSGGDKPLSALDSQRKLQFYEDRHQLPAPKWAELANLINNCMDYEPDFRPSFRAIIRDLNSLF
Test: not given
Settings: read-out: Binding constant with WT JAK2 JH2; cited from earlier work

| Structure (SMILES) | Kd |
| --- | --- |
| Nc1ncnc2c1ncn2[C@@H]1O[C@H](COP(=O)(O)OP(=O)(O)OP(=O)(O)O)[C@@H](O)[C@H]1O [ATP] | 1.3 µM |

Target: JAK2 JH2 V617F mutant (Homo sapiens (Human), UniProt O60674, V617F)
Sequence (O60674 545-809 V617F): as the sequence (O60674 545-809) above, with V73F counted along it
Test: not given
Settings: cited from earlier work

| Structure (SMILES) | Kd |
| --- | --- |
| Nc1ncnc2c1ncn2[C@@H]1O[C@H](COP(=O)(O)OP(=O)(O)OP(=O)(O)O)[C@@H](O)[C@H]1O [ATP] | 1.3 µM |

— patent US12110278B2, “Selective JAK2 pseudokinase ligands and methods of use” (YALE UNIVERSITY, priority 2020, dated 2024)
